Assay [1] deals with Fusarium graminearum.
Assay [2] concerns Pyricularia oryzae.

Results on one compound are retold here after patent publication US6384186B2 (priority 1995, dated 2002).

Square brackets hold non-standard residues; d marks the D form. Peptide text beside a SMILES is read from it. NMeI = CC[CH](C)[CH](NC)C(=O)O; NMeV = CN[CH](C(=O)O)C(C)C; Sar = CNCC(=O)O

In the case of `CCC(C)C1NC(=O)C(C(C)C)N(C)C(=O)C(Cc2c[nH]c3ccccc23)NC(=O)CN(C)C(=O)C(C(C)CC)N(C)C(=O)C(C(C)C)NC(=O)CN(C)C(=O)C(C(C)CC)N(C)C(=O)C(C(C)C)N(C)C(=O)CN(C)C(=O)C(C(C)C)N(C)C(=O)C(C(C)C)N(C)C1=O` (centres unmarked) [omphalotin] (cyclo([Sar][NMeV][NMeI][Sar]V[NMeI][Sar]W[NMeV]I[NMeV][NMeV]); configuration not given here), the Efficacy of omphalotin in assay [1] was 23%; in assay [2] it was 70%.
